Source: US20240368163A1, “COMPOUNDS AND METHODS FOR MODULATING SPLICING” (REMIX THERAPEUTICS INC., priority 2021, published 2024)

Legend:
Format in all cases: cell-based, human
[1] = tested on: HTT; assay: Splicing RT-qPCR assay, HTT mRNA canonical junction (CJ) and alternative junction (AJ); settings: Homo sapiens; for AC50: increase in AJ mRNA
Procedure, shortened: (§1)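 Cells: A673 (DMEM/10% FBS) or K562 (IMDM/10% FBS). Dose: 11-pt 3-fold, top 10 uM final, ≤0.25% DMSO, 24 h, 37 °C. Readout: RT-qPCR of CJ/AJ exon junctions, ΔΔCt vs housekeeper and DMSO, RQ to % response.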

[2] = tested on: MYB; assay: Splicing RT-qPCR assay, MYB mRNA canonical junction (CJ) and alternative junction (AJ); settings: Homo sapiens; for AC50: increase in AJ mRNA
Procedure, shortened: as §1

[3] = tested on: SMN2; assay: Splicing RT-qPCR panel, SMN2 canonical junction (CJ) mRNA; settings: Homo sapiens, RT-qPCR panel, canonical junction mRNA; compound concentration having 50% response in CJ decrease; read-out: SMN2 IC50 (decrease in CJ mRNA levels)
Procedure, shortened: as §1

[4] = tested on: Target C; assay: Splicing RT-qPCR panel, Target C canonical junction (CJ) mRNA; settings: Homo sapiens, RT-qPCR panel, canonical junction mRNA; compound concentration having 50% response in CJ decrease; read-out: Target C IC50 (decrease in CJ mRNA levels)
Procedure, shortened: as §1

[5] = tested on: MYB; assay: HiBiT protein abundance assay, MYB; settings: Homo sapiens, K562, 24 h, Table 13A, modified K562 cells
Procedure, shortened: (§2)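 Protein abundance measured by Nano-Glo HiBiT lytic luminescence after 24 h compound exposure of modified K562 lines, 10000 cells/well, top final dose 10 μM in 3-fold steps. Four-parameter fit of control-normalised response gives concentration reducing abundance to 50% of untreated.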

[6] = tested on: HTT; assay: HiBiT protein abundance assay, HTT; settings: Homo sapiens, K562, 24 h, Table 13A, modified K562 cells
Procedure, shortened: as §2

[7] = tested on: Target C; assay: HiBiT protein abundance assay, Target C; settings: Homo sapiens, K562, 24 h, Table 13A, modified K562 cells
Procedure, shortened: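 Target protein levels in engineered HiBiT-tagged cells were read by lytic luminescence after 24 h compound exposure (10000 cells/well, 10 μM top final, 3-fold steps, ≤0.25% DMSO). Unmodified K562 served as baseline; four-parameter regression gave concentration reducing abundance to 50%.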

[8] = 24 h, decrease in CJ mRNA, A673 or K562 cells, 24 hours treatment, RT-qPCR, read-out: HTT CJ IC50
[9] = 24 h, A673 or K562 cells, 24 hours treatment, RT-qPCR
[10] = RT-qPCR panel, canonical junction mRNA, compound concentration having 50% response in CJ decrease, read-out: HTT IC50 (decrease in CJ mRNA levels)
[11] = 24 h, decrease in CJ mRNA, A673 or K562 cells, 24 hours treatment, RT-qPCR, read-out: MYB CJ IC50
[12] = RT-qPCR panel, canonical junction mRNA, compound concentration having 50% response in CJ decrease, read-out: MYB IC50 (decrease in CJ mRNA levels)

CN(c1ccc(-c2ccc(-c3ccn(C)c(=O)c3)c3scnc23)nn1)C1CC(C)(C)NC(C)(C)C1 [Compound 174]
IC50 [1, 8]: 1 to 10 µM
AC50 [1, 9]: 1 to 10 µM
IC50 [1, 10]: 1 to 10 µM
IC50 [2, 11]: 1 to 10 µM
AC50 [2, 9]: 1 to 10 µM
IC50 [2, 12]: 1 to 10 µM
IC50 [3]: 0.1 to 1 µM
IC50 [4]: > 10 µM
IC50 [5]: 1 to 10 µM
IC50 [6]: 0.1 to 1 µM
IC50 [7]: > 10 µM

CN(c1ccc(-c2ccc(-c3cnn(C)c3)c3scnc23)nn1)C1CC(C)(C)NC(C)(C)C1 [Compound 175]
IC50 [1, 8]: > 10 µM
AC50 [1, 9]: 1 to 10 µM
IC50 [1, 10]: > 10 µM
IC50 [2, 11]: > 10 µM
AC50 [2, 9]: 1 to 10 µM
IC50 [2, 12]: > 10 µM
IC50 [3]: 1 to 10 µM
IC50 [4]: > 10 µM
IC50 [5]: 1 to 10 µM
IC50 [6]: 1 to 10 µM
IC50 [7]: 1 to 10 µM

Cc1[nH]ncc1-c1ccc(-c2ccc(N(C)C3CC(C)(C)NC(C)(C)C3)nn2)c2ncsc12 [Compound 176]
IC50 [1, 8]: > 10 µM
AC50 [1, 9]: > 10 µM
IC50 [1, 10]: > 10 µM
IC50 [2, 11]: > 10 µM
AC50 [2, 9]: > 10 µM
IC50 [2, 12]: > 10 µM
IC50 [3]: > 10 µM
IC50 [4]: > 10 µM
IC50 [5]: 1 to 10 µM
IC50 [6]: 1 to 10 µM
IC50 [7]: 1 to 10 µM

COc1cc(-c2ccc(-c3ccc(N(C)C4CC(C)(C)NC(C)(C)C4)nn3)c3ncsc23)ccn1 [Compound 177]
IC50 [1, 8]: > 10 µM
AC50 [1, 9]: > 10 µM
IC50 [1, 10]: > 10 µM
IC50 [2, 11]: 1 to 10 µM
AC50 [2, 9]: > 10 µM
IC50 [2, 12]: 1 to 10 µM
IC50 [3]: 1 to 10 µM
IC50 [4]: > 10 µM
IC50 [5]: 1 to 10 µM
IC50 [6]: 1 to 10 µM
IC50 [7]: 1 to 10 µM

CN(c1ccc(-c2ccc(-c3cnc(=O)[nH]c3)c3scnc23)nn1)C1CC(C)(C)NC(C)(C)C1 [Compound 179]
IC50 [1, 8]: 0.1 to 1 µM
AC50 [1, 9]: 0.1 to 1 µM
IC50 [1, 10]: 0.1 to 1 µM
IC50 [2, 11]: 0.1 to 1 µM
AC50 [2, 9]: 0.1 to 1 µM
IC50 [2, 12]: 0.1 to 1 µM
IC50 [3]: 0.1 to 1 µM
IC50 [4]: 0.1 to 1 µM
IC50 [5]: 0.1 to 1 µM
IC50 [6]: 0.1 to 1 µM
IC50 [7]: 0.1 to 1 µM

CN(c1ccc(-c2ccc(-c3ccc(=O)[nH]c3)c3scnc23)nn1)C1CC(C)(C)NC(C)(C)C1 [Compound 180]
IC50 [1, 8]: 0.1 to 1 µM
AC50 [1, 9]: 0.1 to 1 µM
IC50 [1, 10]: 0.1 to 1 µM
IC50 [2, 11]: 0.1 to 1 µM
AC50 [2, 9]: 0.1 to 1 µM
IC50 [2, 12]: 0.1 to 1 µM
IC50 [3]: 0.1 to 1 µM
IC50 [4]: 0.1 to 1 µM
IC50 [5]: 0.1 to 1 µM
IC50 [6]: 0.1 to 1 µM
IC50 [7]: 0.1 to 1 µM

CC1(C)CC(Oc2ccc(-c3ccc(-c4cn[nH]c4)c4ncsc34)nn2)CC(C)(C)N1 [Compound 181]
IC50 [1, 8]: > 10 µM
AC50 [1, 9]: > 10 µM
IC50 [1, 10]: > 10 µM
IC50 [2, 11]: > 10 µM
AC50 [2, 9]: > 10 µM
IC50 [2, 12]: > 10 µM
IC50 [3]: < 0.1 µM
IC50 [4]: > 10 µM
IC50 [5]: < 0.1 µM
IC50 [6]: < 0.1 µM
IC50 [7]: < 0.1 µM

c1nc2c(-c3cn[nH]c3)ccc(-c3ccc(N4CCNCC4)nn3)c2s1 [Compound 185]
IC50 [1, 8]: > 10 µM
AC50 [1, 9]: 1 to 10 µM
IC50 [1, 10]: > 10 µM
IC50 [2, 11]: 1 to 10 µM
AC50 [2, 9]: > 10 µM
IC50 [2, 12]: 1 to 10 µM
IC50 [3]: 0.1 to 1 µM
IC50 [4]: > 10 µM
IC50 [5]: 1 to 10 µM
IC50 [6]: 1 to 10 µM
IC50 [7]: 1 to 10 µM

c1nc2c(-c3cn[nH]c3)ccc(-c3ccc(N4CC5(CCCNC5)C4)nn3)c2s1 [Compound 187]
IC50 [1, 8]: > 10 µM
AC50 [1, 9]: > 10 µM
IC50 [1, 10]: > 10 µM
IC50 [2, 11]: > 10 µM
AC50 [2, 9]: > 10 µM
IC50 [2, 12]: > 10 µM
IC50 [3]: 1 to 10 µM
IC50 [4]: > 10 µM
IC50 [5]: 1 to 10 µM
IC50 [6]: 1 to 10 µM
IC50 [7]: > 10 µM

c1nc2c(-c3cn[nH]c3)ccc(-c3ccc(N4CCC5(CC4)CNC5)nn3)c2s1 [Compound 188]
IC50 [1, 8]: > 10 µM
AC50 [1, 9]: > 10 µM
IC50 [1, 10]: > 10 µM
IC50 [2, 11]: > 10 µM
AC50 [2, 9]: > 10 µM
IC50 [2, 12]: > 10 µM
IC50 [3]: > 10 µM
IC50 [4]: > 10 µM
IC50 [5]: > 10 µM
IC50 [6]: > 10 µM
IC50 [7]: > 10 µM

c1nc2c(-c3cn[nH]c3)ccc(-c3ccc(N4CCCC5(CNC5)C4)nn3)c2s1 [Compound 189]
IC50 [1, 8]: > 10 µM
AC50 [1, 9]: > 10 µM
IC50 [1, 10]: > 10 µM
IC50 [2, 11]: > 10 µM
AC50 [2, 9]: > 10 µM
IC50 [2, 12]: > 10 µM
IC50 [3]: > 10 µM
IC50 [4]: > 10 µM
IC50 [5]: > 10 µM
IC50 [6]: > 10 µM
IC50 [7]: > 10 µM

c1nc2c(-c3cn[nH]c3)ccc(-c3ccc(N4CCC5(CCNCC5)C4)nn3)c2s1 [Compound 190]
IC50 [1, 8]: > 10 µM
AC50 [1, 9]: > 10 µM
IC50 [1, 10]: > 10 µM
IC50 [2, 11]: > 10 µM
AC50 [2, 9]: > 10 µM
IC50 [2, 12]: > 10 µM
IC50 [3]: > 10 µM
IC50 [4]: > 10 µM
IC50 [5]: > 10 µM
IC50 [6]: > 10 µM
IC50 [7]: > 10 µM

c1nc2c(-c3cn[nH]c3)ccc(-c3ccc(N4CCC5(CCCNC5)C4)nn3)c2s1 (centres unmarked) [Compound 191]
IC50 [1, 8]: > 10 µM
AC50 [1, 9]: > 10 µM
IC50 [1, 10]: > 10 µM
IC50 [2, 11]: > 10 µM
AC50 [2, 9]: > 10 µM
IC50 [2, 12]: > 10 µM
IC50 [3]: 1 to 10 µM
IC50 [4]: > 10 µM
IC50 [5]: 1 to 10 µM
IC50 [6]: 1 to 10 µM
IC50 [7]: > 10 µM

c1nc2c(-c3cn[nH]c3)ccc(-c3ccc(N4CCC5(CCNC5)CC4)nn3)c2s1 [Compound 192]
IC50 [1, 8]: > 10 µM
AC50 [1, 9]: > 10 µM
IC50 [1, 10]: > 10 µM
IC50 [2, 11]: > 10 µM
AC50 [2, 9]: > 10 µM
IC50 [2, 12]: > 10 µM
IC50 [3]: > 10 µM
IC50 [4]: > 10 µM
IC50 [5]: > 10 µM
IC50 [6]: > 10 µM
IC50 [7]: > 10 µM

c1nc2c(-c3cn[nH]c3)ccc(-c3ccc(N4CCCC5(CCNC5)C4)nn3)c2s1 (centres unmarked) [Compound 193]
IC50 [1, 8]: > 10 µM
AC50 [1, 9]: > 10 µM
IC50 [1, 10]: > 10 µM
IC50 [2, 11]: > 10 µM
AC50 [2, 9]: > 10 µM
IC50 [2, 12]: > 10 µM
IC50 [3]: > 10 µM
IC50 [4]: > 10 µM
IC50 [5]: 1 to 10 µM
IC50 [6]: > 10 µM
IC50 [7]: > 10 µM

c1nc2c(-c3cn[nH]c3)ccc(-c3ccc(NC4CNC4)nn3)c2s1 [Compound 196]
IC50 [1, 8]: > 10 µM
AC50 [1, 9]: > 10 µM
IC50 [1, 10]: > 10 µM
IC50 [2, 11]: > 10 µM
AC50 [2, 9]: > 10 µM
IC50 [2, 12]: > 10 µM
IC50 [3]: > 10 µM
IC50 [4]: > 10 µM
IC50 [5]: > 10 µM
IC50 [6]: > 10 µM
IC50 [7]: > 10 µM
